Test results reported in publication PMC3901259, “Characterisation of the Metabolites of 1,8-Cineole Transferred into Human Milk: Concentrations and Ratio of Enantiomers” (Metabolites, 2013).

Columns and labels:
[1] = Quantification of 1,8-cineole metabolites in human milk (SAFE, GC-MS, internal standard and matrix calibration) after oral intake of 100 mg 1,8-cineole; assay type: in vivo; conditions: for Absolute concentration in human milk: single determination
Source text: Human milk samples were provided voluntarily by breastfeeding mothers after intake of the non-prescription pharmaceutical Soledum® (Klosterfrau Healthcare Group, Cologne, Germany). Before the beginning of the study, the participants were informed verbally, as well as in written form, about the study procedure and purpose and they were told that withdrawing from the study was possible at any time without giving any reason. All volunteers gave written consent to the analysis of their milk samples and anonymous publication of the resulting data. The Ethical Committee of the Medical Faculty, University Erlangen-Nuremberg, approved the experimental procedures. Each participant was handed a copy of the Soldeum® package instructions and was advised to read it before capsule intake. They were also advised to withdraw from the study if any negative reactions such as medication allergies or interactions with other drugs they were taking were to be expected. Additionally, the volunteers were informed verbally about potential effects of the pharmaceutical preparation on breastfeeding, i.e. the risk of an altered milk flavour and rejection of the milk by the nursling. Accordingly, if this would happen, the mothers were recommended to feed their babies with stored human milk or formula milk products.
The milk donors were between the ages of 29 and 40 years (mean 34 years). During their participation in the study, their breast milk production had to be normal and in excess of their infants' needs, with no breast infections and no overall medical complaints present. Five participants were primiparous, three were multiparous and the breast milk samples were from 19 weeks to 19 months postpartum. For sampling, either electrical or mechanical breast pumps or manual expression techniques were applied, resulting in sample volumes between 10 and 100 mL. The samples were immediately subjected to sample preparation after a maximum storage time of five hours at 7 °C or were stored in a freezer at −20 °C for up to five days.
The participating volunteers were asked to ingest one Soledum® capsule, containing 100 mg 1,8-cineole, and to wait until they themselves or another person began to notice the eucalyptus-like odour on their breath. […] The donors were instructed to keep notes on the dates of capsule intake, first eucalyptus-like odour on their breath and exact sampling time. Unfortunately it was difficult for some mothers to detect the smell on their breath so they expressed the samples after some time without having noticed the smell, or reported having been unsure about the smell. […] Some of the donors repeated the whole experiment and some expressed more than one sample after the capsule intake, resulting in 14 samples in total, from 8 different mothers.
Extracts containing the volatile fraction of the human milk samples were prepared by Solvent Assisted Flavour Evaporation (SAFE) after addition of deuterated 1,8-cineole as internal standard (solution in dichloromethane), followed by 10 min of stirring, then another addition of dichloromethane (50% v/v), and 30 min of stirring. The resulting stable phase was distilled in the SAFE-apparatus at 50 °C and approximately 1x10^−4 mbar. The volatile fraction of the samples was frozen with liquid nitrogen. After thawing, it consisted of two phases, formed by the dichloromethane and by the water out of the milk. The water phase was extracted three times with dichloromethane, and the solvent phases were combined and dried over anhydrous Na2SO4. Finally the sample extracts were concentrated by microdistillation according to Bemelmans at 50 °C to a total volume of 50 to 200 μL.
For GC-MS analyses, an Agilent MSD quadrupole system (GC 7890A with MSD 5975C, Agilent Technologies, Waldbronn, Germany) coupled with a CIS 4C (cooled injection system) and an MPS 2 auto-sampler (Gerstel GmbH & Co. KG, Duisburg, Germany) were used. […]

[2] = Determination of the ratios of enantiomers of chiral metabolites in human milk on chiral GC capillaries; assay type: in vivo; conditions: for Percentage E1: B-2b, B-2c of the same parent
Source text: The separation of the chiral metabolites of 1,8-cineole was successfully achieved using different β- or γ-cyclodextrin-based stationary phases (Rt-bDEXsa, Rt-bDEXse, Rt-bDEXsm and Rt-yDEXsa) for gas chromatographic analysis. Table S1, in the supplementary material, lists the usable separation phases and the respective retention indices (determined according to van den Dool and Kratz) for each pair of enantiomers. It was therefore decided to use the following capillaries for the analysis of the human milk samples: Rt-bDEXsm for separation of 2,3-dehydro-, α2,3-epoxy-, 2-oxo-, 3-oxo- and 9-hydroxy-1,8-cineole, and Rt-yDEXsa for separation of α2-hydroxy-, α3-hydroxy- and β2-hydroxy-1,8-cineole, under the GC conditions described in the experimental section.
For GC-MS analyses, an Agilent MSD quadrupole system (GC 7890A with MSD 5975C, Agilent Technologies, Waldbronn, Germany) coupled with a CIS 4C (cooled injection system) and an MPS 2 auto-sampler (Gerstel GmbH & Co. KG, Duisburg, Germany) were used. Data collection and analysis were performed with the MSD ChemStation E.02.00.493 (Agilent Technologies, Inc.) software. Quantification experiments were carried out on DB-FFAP and DB-5 capillaries (30 m length, 0.25 mm inner diameter, 0.25 µm film thickness, Agilent J&W GC Columns, USA), and for monitoring of the ratio of enantiomers the chiral capillaries Rt-bDEXsa, Rt-bDEXse, Rt-bDEXsm and Rt-yDEXsa (30 m length, 0.32 mm inner diameter, 0.25 µm film thickness, Restek GmbH, Bad Homburg, Germany) were utilised. Pre-columns of uncoated, deactivated fused silica (0.53 mm inner diameter, 0.5 to 3.5 m length) were used to ensure that no potentially present low-volatile residues could contaminate the analytical capillaries. The temperature programme of the column oven was as follows: 40 °C for 2 min, 4 °C/min up to 170 °C, 40 °C/min up to 230 °C (Rt-DEX capillaries), 240 °C (DB-FFAP) and 250 °C (DB-5), respectively, and hold time at end temperature of 5 to 10 min. As carrier gas, helium was used at a flow rate of 1.3 mL/min (velocity 41.1 cm/s). Injection of 1 or 2 µL was performed by the auto-sampler.
For the separation of the pairs of enantiomers of the chiral metabolites of 1,8-cineole, four different capillaries (Rt-bDEXsa, Rt-bDEXse, Rt-bDEXsm, and Rt-yDEXsa) were evaluated for optimisation of the peak-to-peak resolution of the enantiomers by injecting a mixture of all the metabolites in a dichloromethane solution and by varying the heating rate. Besides the separation of each pair of enantiomers from each other, it was also important to confirm that no other metabolite coeluted with any one of the enantiomers, because the milk samples would most probably contain all metabolites. Moreover, the separation conditions for the mixture of reference substances were also tested on some human milk sample extracts and modified accordingly, where necessary, to avoid coelution with interfering matrix compounds.
For calculation of the ratio of enantiomers (that is, the relative abundance of each enantiomer to the not separated mixture of enantiomers), the peak area of each enantiomer was divided by the sum of the peak areas of both enantiomers and multiplied by 100. With the known concentrations of the chiral metabolites in each milk sample, the absolute concentration of each single enantiomer was also calculated by multiplying the concentration with the respective percentage.

[3] = set-up: method as in doi:10.1002/cplu.201200253; conditions: urine after 100 mg 1,8-cineole; cited from earlier work
[4] = set-up: method as in PMID 20425757; conditions: one volunteer, sage tea, overall intake 1.02 mg 1,8-cineole; cited from earlier work
[5] = sample A-1a (no odour), oral 100 mg 1,8-cineole, values given with (<x) lie beyond calibration range, approximation
[6] = sample A-1b (odour yes), oral 100 mg 1,8-cineole, values given with (<x) are approximations
[7] = sample B-1 (odour yes), oral 100 mg 1,8-cineole, values given with (<x) are approximations
[8] = sample B-2a (no odour), oral 100 mg 1,8-cineole
[9] = sample B-2b (odour yes), oral 100 mg 1,8-cineole, values given with (<x) are approximations
[10] = sample B-2c (no odour), oral 100 mg 1,8-cineole
[11] = sample D-1 (no odour), oral 100 mg 1,8-cineole, values given with (<x) are approximations
[12] = sample D-2 (odour yes), oral 100 mg 1,8-cineole, values given with (<x) are approximations
[13] = sample E-2 (odour yes), oral 100 mg 1,8-cineole, values given with (<x) are approximations
[14] = sample F (no odour), parent ingested two capsules, values given with (<x) are approximations
[15] = sample F (no odour), two capsules
[16] = sample G (odour yes), oral 100 mg 1,8-cineole, values given with (<x) are approximations
[17] = sample H (odour yes), oral 100 mg 1,8-cineole, values given with (<x) are approximations

Estimated maximum level in human milk (concentration calculated with the last calibration point, in parentheses) ([1]; sample A-1a (no odour))	Absolute concentration in human milk [1, 5]	Absolute concentration in human milk [1, 6]	Absolute concentration in human milk [1, 7]	Absolute concentration in human milk [1, 8]	Absolute concentration in human milk [1, 9]	Absolute concentration in human milk [1, 10]	Absolute concentration in human milk [1, 11]	Absolute concentration in human milk [1, 12]	Absolute concentration in human milk [1, 13]	Absolute concentration in human milk [1, 14]	Estimated maximum level in human milk (concentration calculated with the last calibration point, in parentheses) [1, 15]	Absolute concentration in human milk [1, 16]	Absolute concentration in human milk [1, 17]	Estimated maximum level in human milk (concentration calculated with the last calibration point, in parentheses) ([1]; sample A-1b (odour yes))	Estimated maximum level in human milk (concentration calculated with the last calibration point, in parentheses) ([1]; sample B-1 (odour yes))	Estimated maximum level in human milk (concentration calculated with the last calibration point, in parentheses) ([1]; sample B-2b (odour yes))	Estimated maximum level in human milk (concentration calculated with the last calibration point, in parentheses) ([1]; sample D-2 (odour yes))	Estimated maximum level in human milk (concentration calculated with the last calibration point, in parentheses) ([1]; sample H (odour yes))	Structure (SMILES)	Presence in human urine [3]	other results
< 1.26 µg/kg	0.28 µg/kg	4.07 µg/kg	13.65 µg/kg	0.07 µg/kg	2.80 µg/kg	0.57 µg/kg	0.45 µg/kg	5.13 µg/kg	9.63 µg/kg	0.59 µg/kg	< 2.40 µg/kg	21.24 µg/kg	37.69 µg/kg						CC12C=CC(CC1)C(C)(C)O2 (centres unmarked) [2,3-dehydro-1,8-cineole, 2,3-Dehydro-1,8-cineole]	could not be found	Estimated maximum level in human milk (concentration calculated with the last calibration point, in parentheses) ([1]; sample C (no odour)): < 0.88 µg/kg; Absolute concentration in human milk ([1]; sample C (no odour; very weak odour not caused by 1,8-cineole), oral 100 mg 1,8-cineole, values given with (<x) are approximations): 0.73 µg/kg; Estimated maximum level in human milk (concentration calculated with the last calibration point, in parentheses) ([1]; sample D-1 (no odour)): < 0.97 µg/kg; Estimated maximum level in human milk (concentration calculated with the last calibration point, in parentheses) ([1]; sample E-1 (no odour)): < 1.21 µg/kg; Absolute concentration in human milk ([1]; sample E-1 (no odour), oral 100 mg 1,8-cineole, values given with (<x) are approximations): 0.19 µg/kg; Percentage E1 in single sample (outlier) ([2]; human milk sample B-2a, excluded from Table 3): 100%
< 1.57 µg/kg	0.13 µg/kg	0.53 µg/kg	0.91 µg/kg		0.34 µg/kg	0.07 µg/kg		0.85 µg/kg	1.71 µg/kg	2.71 µg/kg	< 3.00 µg/kg		0.86 µg/kg	< 1.31 µg/kg	< 1.89 µg/kg	< 2.37 µg/kg	< 2.20 µg/kg	< 2.24 µg/kg	CC12CCC(CC1=O)C(C)(C)O2 (centres unmarked) [2-oxo-1,8-cineole]	could not be found	Estimated maximum level in human milk (concentration calculated with the last calibration point, in parentheses) ([1]; sample E-2 (odour yes)): < 2.03 µg/kg; Percentage E2 in single samples (outliers) ([2]; human milk samples B-1, B-2b and B-2c, excluded from Table 3): 100%
		0.46 µg/kg	0.87 µg/kg	0.18 µg/kg	15.52 µg/kg	0.15 µg/kg		0.46 µg/kg	16.95 µg/kg			0.73 µg/kg	1.83 µg/kg	< 1.08 µg/kg	< 1.57 µg/kg		< 1.82 µg/kg	< 1.86 µg/kg	CC12CCC(CC1)C(C)(CO)O2 (centres unmarked) [9-hydroxy-1,8-cineole]		Estimated maximum level in human milk (concentration calculated with the last calibration point, in parentheses) ([1]; sample G (odour yes)): < 3.33 µg/kg; Percentage E1 ([2]; one of the three samples B-2a): about 80%; Percentage E1 ([2]; the two other samples of B-2a): about 50%; Concentration in plasma [4]: 5.61 ng/mL
		2.48 µg/kg	7.65 µg/kg		2.18 µg/kg	0.66 µg/kg	1.35 µg/kg	4.13 µg/kg	4.65 µg/kg			4.52 µg/kg	6.82 µg/kg			< 2.45 µg/kg			CC1(C)OC2(C)CCC1C1OC12 (stereo not drawn) [a2,3-epoxy-1,8-cineole, α2,3-epoxy-1,8-cineole]	could not be found	
